Source: patent US20060211726A1, “Ascomycin derivatives for combination treatment with tazorotene” (priority 2005, published 2006)

Tested on: psoriasis
Test: Topical treatment of a person suffering from psoriasis
Format: in vivo
Settings: 0.1% Protopic ointment twice a day plus 0.1% tazarotene (Tazorac) once a day in the same person; compared with 0.1% tazarotene alone once a day or 0.1% tacrilomus alone twice a day
Protocol: A composition according to one of examples 1-3 is administered topically once a day to person suffering from psoriasis.
Tacrilomus is administered twice a day as 0.1% Protopic® ointment to a person suffering from psoriasis. The same person receives 0.1% tazarotene as Tazorac® ointment once a day.

C=CC[C@@H]1/C=C(\C)C[C@H](C)C[C@H](OC)[C@H]2O[C@@](O)(C(=O)C(=O)N3CCCC[C@H]3C(=O)O[C@H](/C(C)=C/[C@@H]3CC[C@@H](O)[C@H](OC)C3)[C@H](C)[C@@H](O)CC1=O)[C@H](C)C[C@@H]2OC [Tacrilomus, tacrolimus]
Improvement of symptoms (efficacy): greater efficacy
side effects: fewer side effects
